From patent US4558064A, “2-Azasfiro[4.(3+N)]-3-carboxylic acid derivatives, a process for their preparation, agents containing these derivatives and their use” (Hoechst Aktiengesellschaft, priority 1982, dated 1985)

Test system: pressor response induced by angiotensin I
Experiment: suppression of the pressor response in the rat induced by 310 ng of angiotensin I
Assay type: in vivo
Conditions: 30 minutes after administration, 310 ng angiotensin I
Procedure: In animal experiments, the following effects, for example, were obtained: the suppression of the pressor response in the rat induced by 310 ng of angiotensin I was measured.
(a) i.v. administration (30 minutes after administration)
(b) i.d. administration (30 minutes after administration)

[1] = i.v. administration, dose 100 μg/kg

Structure (SMILES) | % inhibition of the pressor response induced by angiotensin I (i.d. administration, dose 1 mg/kg) | % inhibition of the pressor response induced by angiotensin I [1] | % inhibition of the pressor response induced by angiotensin I (i.d. administration, dose 0.1 mg (so in the source))
CCOC(=O)C(CCc1ccccc1)NC(C)C(=O)N1CC2(CCCC2)CC1C(=O)O (stereo not drawn) | 85-95% | 95% | 
CCOC(=O)C(CCc1ccccc1)NC(C)C(=O)N1CC2(CCCCC2)CC1C(=O)O (stereo not drawn) |  | 95% | 60-70%
CC(NC(CCc1ccccc1)C(=O)O)C(=O)N1CC2(CCCCCC2)CC1C(=O)O (stereo not drawn) |  | 95% | 
CCOC(=O)C(CC(=O)c1ccccc1)NC(C)C(=O)N1CC2(CCCCC2)CC1C(=O)O (stereo not drawn) [N-(1-Carboethoxy-3-oxo-3-phenylpropyl)alanyl-2-azaspiro[4.5]decane-3-carboxylic acid] |  | 95% | 
